Entries after “also recorded” stand apart in the source; their conditions may differ.
Legend:
SARS-CoV-2 [1] = format: cell-based
SARS-CoV-2 [2] = format: cell-based; remark: listed apart in the source

## CCN(CCO)CCCC(C)Nc1ccnc2cc(Cl)ccc12 (centres unmarked) [Hydroxychloroquine, reference compound]
SARS-CoV-2 [1]
  Rescue of CPE: ~ 90%
SARS-CoV-2 [2]
  Reduction of viral titre: 10 fold

## CCC(CC)COC(=O)[C@H](C)N[P@](=O)(OC[C@H]1O[C@@](C#N)(c2ccc3c(N)ncnn23)[C@H](O)[C@@H]1O)Oc1ccccc1 [Remdesivir, reference compound]
SARS-CoV-2 [1]
  Reversal of SARS-CoV-2 induced CPE: ~ 90%

## CC(c1cccc2ccccc12)N1CCC(C(=O)NCc2cccc(F)c2)CC1 (stereo not drawn) [rac3k]
SARS-CoV-2 [1]
  CPE reduction at lower concentrations: diminished
  Effect on SARS-CoV-2-induced CPE: significantly rescued infected cells; also recorded: reduced SARS‐CoV‐2‐induced CPE
  Remaining cell death: around 20%
Vero cells
  Toxicity on Vero cells: no toxicity
Vero cells; African green monkey
  Cellular toxicity: ~25%

Reference: article PMC7461020 (The EMBO Journal, 2020)
